The text below walks through data of patent US20060188508A1, “Methods and compositions for modulating angiogenesis” (priority 2005, published 2006).

Ends that are not written are not given here.

One may read the IC50 as the concentration at which inhibition is half-maximal. Read a low IC50 as greater potency.

One data set concerns Clone 18. The data set can be described thus: Drug sensitivity by MTT assay (IC50). The conditions noted are these: for Fold of resistance (Clone 18/M2182tTA): IC50 of clone 18 divided with IC50 of M2182tTA; for IC50: MTT assay, mean ± SD of three determinations; for Killing of clone 18 cells compared with parental cells: non-taxane drugs, Table 1. The format is cell-based, human. Background: Formazan colour is commonly taken as a measure of viable cells.

The next data set relates to M2182tTA. Kind of data set: Drug sensitivity by MTT assay (IC50). The format is cell-based, human. The settings on record: mean ± SD of three determinations.
Data set [1] has as its system clone 18 cells. The data set can be described thus: Modulation of drug cytotoxicity by added TSP-1, mimetic peptides, antibody or MDR inhibitor (MTT viability). Format: cell-based, human. The conditions noted are these: for Effect on taxol resistance / taxol cytotoxicity in clone 18: added to culture with various taxol concentrations, MTT.
Data set [2] relates to M2182tTA cells. The data set can be described thus: Preliminary taxol exposure of plated cells before selection of resistant clones. Format: cell-based, human. The settings on record: 5 days of exposure to 5 nM taxol; preliminary experiments.
Data set [3] concerns M2182tTA cells. The data set can be described thus: Modulation of drug cytotoxicity by added TSP-1, mimetic peptides, anti-CD47 antibody or pertussis toxin (MTT viability). The format is cell-based, human.
Data set [4] relates to clone 18 cells. Kind of data set: TUNEL assay of taxol-induced apoptosis. The format is cell-based, human. The settings on record: taxol plus 7.5 μg/ml purified TSP-1, 3 days.
Data set [5] concerns the target CD47 receptor (integrin-associated protein) (human, UniProt Q08722 19-323). Kind of data set: cell-based or functional assay.
Where [6] appears, read: adriamycin, etoposide, vinblastine, vincristine, epothilone B.

As for `C/C(=C\c1csc(C)n1)[C@@H]1C[C@@H]2O[C@]2(C)CCC[C@H](C)[C@H](O)[C@@H](C)C(=O)C(C)(C)[C@@H](O)CC(=O)O1` [Epothilone B], in the data set with Clone 18, the “Fold of resistance (Clone 18/M2182tTA)” value was 0.9, the IC50 turned out to be 0.68 ± 0.21 nM and the “Killing of clone 18 cells compared with parental cells” value is listed as “No evidence of reduced killing”. Moreover, in the data set on M2182tTA, it took 0.75 ± 0.35 nM to reach half-maximal inhibition (IC50).

In turn, `CC[C@]1(O)C[C@H]2CN(CCc3c([nH]c4ccccc34)[C@@](C(=O)OC)(c3cc4c(cc3OC)N(C=O)[C@H]3[C@@](O)(C(=O)OC)[C@H](OC(C)=O)[C@]5(CC)C=CCN6CC[C@]43[C@@H]65)C2)C1` [Vincristine, vincristine] displayed a half-maximal inhibitory concentration (IC50) in the data set on Clone 18 (Homo sapiens) of 12 ± 0.42 nM. For the same molecule, in the data set on Clone 18, the “Fold of resistance (Clone 18/M2182tTA)” value came out at 1.09 and the “Killing of clone 18 cells compared with parental cells” value is given as “No evidence of reduced killing”.

As to `CC[C@]1(O)C[C@@H]2CN(CCc3c([nH]c4ccccc34)[C@@](C(=O)OC)(c3cc4c(cc3OC)N(C)[C@H]3[C@@](O)(C(=O)OC)[C@H](OC(C)=O)[C@]5(CC)C=CCN6CC[C@]43[C@@H]65)C2)C1` [Vinblastine, vinblastine], the IC50 in the data set on Clone 18 (Homo sapiens) was determined as 7 ± 0.21 nM; with M2182tTA (Homo sapiens), 7.5 ± 0.18 nM. For the same molecule, the “Fold of resistance (Clone 18/M2182tTA)” value in the data set on Clone 18 worked out at 0.93. For the same molecule, the “Killing of clone 18 cells compared with parental cells” value with Clone 18 is reported as “No evidence of reduced killing”.

For KRFYVVMWKK [4N1K], the “Effect on taxol resistance / taxol cytotoxicity in clone 18” value with clone 18 cells [1] was “dose-dependent partial reversal”.

For the molecule `CC(=O)O[C@H]1C(=O)[C@@]2(C)[C@H]([C@H](OC(=O)c3ccccc3)[C@]3(O)C[C@H](OC(=O)[C@H](O)[C@@H](NC(=O)c4ccccc4)c4ccccc4)C(C)=C1C3(C)C)[C@]1(OC(C)=O)CO[C@@H]1C[C@@H]2O` [Taxol, Paclitaxel], the IC50 with Clone 18 (Homo sapiens) was found to be 17.5 ± 0.18 nM; in the data set with M2182tTA (Homo sapiens) it was 7.2 ± 0.11 nM. In addition, the “Fold of resistance (Clone 18/M2182tTA)” value with Clone 18 was 2.45; in the data set with Clone 18 (listed as taxol), “approximately two and a half-fold”. In addition, the “Surviving M2182tTA cells” value in the data set with M2182tTA cells [2] is recorded as “no surviving M2182tTA cells”.

KRFYGGMWKK [4NGG]: the “Effect on taxol resistance / taxol cytotoxicity in clone 18” value in the data set on clone 18 cells [1] was “no effect”.

Take `CC(=O)O[C@@]12CO[C@@H]1C[C@H](O)[C@@]1(C)C(=O)[C@H](O)C3=C(C)[C@@H](OC(=O)[C@H](O)[C@@H](NC(=O)OC(C)(C)C)c4ccccc4)C[C@@](O)([C@@H](OC(=O)c4ccccc4)[C@H]21)C3(C)C` [Docetaxel]: the IC50 in the data set with Clone 18 (Homo sapiens) is 6.93 ± 0.05 nM; in the data set with M2182tTA (Homo sapiens) it was 2.66 ± 0.11 nM. The “Fold of resistance (Clone 18/M2182tTA)” value in the data set with Clone 18 is 2.62.

Take “TSP-1: TSP-1 purified from human platelets, purchased from EMD Biosciences”: the “Effect on taxol-mediated killing of naïve M2182tTA cells” value with M2182tTA cells [3] (added to culture with taxol, MTT) is “reduced survival”. Also, in the data set on M2182tTA cells [3] (setting [6]), the “Effect on sensitivity of M2182tTA cells to other chemotherapeutic drugs” value is “sensitization was not observed”. The “Survival and apoptosis with agent alone” value in the data set with clone 18 cells [1] (TSP-1 alone at the dosage added to clone 18 cultures) is “only limited ability to reduce survival and induce apoptosis”. In addition, the “Effect on taxol resistance / taxol cytotoxicity in clone 18” value in the data set with clone 18 cells [1] was “dose-dependent partial reversal”. Besides, the “Effect on killing of clone 18 cells by other chemotherapeutic agents” value with clone 18 cells [1] (setting [6]) was “no effects”. For the same molecule, the Taxol-induced apoptosis entry with clone 18 cells [4] is “dramatically and synergistically increased”.

The molecule `COc1cccc2c1C(=O)c1c(O)c3c(c(O)c1C2=O)C[C@@](O)(C(=O)CO)C[C@@H]3O[C@H]1C[C@H](N)[C@H](O)[C@H](C)O1` [Adriamycin, adriamycin] returned an IC50 with Clone 18 (Homo sapiens) of 0.133 ± 0.0071 µg/mL. In addition, in the data set on Clone 18, the “Fold of resistance (Clone 18/M2182tTA)” value is reported as 0.83 and the “Killing of clone 18 cells compared with parental cells” value is given as “No evidence of reduced killing”. Besides, the IC50 in the data set with M2182tTA (Homo sapiens) is 0.15 ± 0.0099 µg/mL.

Consider `COc1cc([C@@H]2c3cc4c(cc3[C@@H](O[C@@H]3O[C@@H]5CO[C@@H](C)O[C@H]5[C@H](O)[C@H]3O)[C@H]3COC(=O)[C@H]23)OCO4)cc(OC)c1O` [Etoposide, etoposide], for which the IC50 in the data set on Clone 18 (Homo sapiens) is 650 ± 60 nM. Also, in the data set with Clone 18, the “Fold of resistance (Clone 18/M2182tTA)” value is recorded as 0.81 and the “Killing of clone 18 cells compared with parental cells” value was “No evidence of reduced killing”. Besides, in the data set on M2182tTA (Homo sapiens), half-maximal inhibition (IC50) was put at 800 ± 30 nM.

Consider GVITRIR (human) [ABT-510], for which the “Effect on taxol resistance / taxol cytotoxicity in clone 18” value in the data set on clone 18 cells [1] is “no effect”.

B1: anti-CD47 monoclonal antibody, clone B6H12 (BD Pharmingen) (antibody)
chain: EVQLVESGGDLVKPGGSLKLSCAASGFTFSGYGMSWVRQTPDKRLEWVATITSGGTYTYYPDSVKGRFTISRDNAKNTLYLQIDSLKSEDTAIYFCARSLAGNAMDYWGQGTSVTVSSGGGGSGGGGSGGGGSDIVMTQSPATLSVTPGDRVSLSCRASQTISDYLHWYQQKSHESPRLLIKFASQSISGIPSRFSGSGSGSDFTLSINSVEPEDVGVYYCQNGHGFPRTFGGGTKLEIK
Consider B1, for which the “viability of M2182tTA cells to taxol treatment (MTT assay, 10 ug/ml antibody)” value in data set [5] worked out at 2.2 fold.
